Laboratory results from patent publication US10723730B2, “Solid forms of a selective CDK4/6 inhibitor” (PFIZER INC., priority 2013, dated 2020).

Assays:
[1] = kinetic solubility measurements (dissolution temperature); format: physicochemical; settings: 25 mg/mL, max 110° C.
Description: In an initial room temperature solubility screening study, a total of 23 solvents were screened. […] Subsequent targeted higher temperature solubility studies were conducted.

[2] = MASS (Material Adhesion Screen for Sticking) Punch; format: physicochemical; settings: 10% API in standard blend (89.75% Avicel PH102, 0.25% magnesium stearate); up to 100 compressions
Excerpt: The MASS (Material Adhesion Screen for Sticking) Punch was developed in-house to quantitatively assess the sticking propensity of tablet formulations by weighing the amount of adhered powder on removable punch tip after a series of compressions. This test enables formulators to objectively and quickly evaluate the risk of punch sticking during drug product development and troubleshoot sticking observed during clinical tablet manufacturing. To prepare the sample for MASS Punch testing, 10 g of API was diluted in a lightly lubricated standard blend (10% API, 89.75% Avicel PH102 and 0.25% magnesium stearate) and bottle blended (500 mL amber glass bottle) for 500 rotations. The weight of powder adhered to the removable punch tip (½″ round flat faced) was assessed using a microbalance periodically up to 100 compressions of ˜250 mgW tablets at a target solid fraction of 0.85.

[3] = physical properties of free base isolated from standard salt break process; format: physicochemical; settings: free base isolated directly from a standard salt break process
Excerpt: As punch sticking is related to API surface area, API particle size control is critical for minimizing sticking during drug product manufacturing. […] Free base API with similarly poor physical properties was produced by free basing of the existing isethionate salt API or by neutralization of the in situ salt formed in the final step of the API synthesis. In either process, small API primary particles were produced due to the rapid crystallization caused by the dramatic change in solubility with adjustment of the pH.

[4] = free base prepared by traditional salt break procedure; cited from earlier work
[5] = particle size analysis by laser diffraction; format: physicochemical
Description: Particle sizes for the recrystallized materials were assessed using laser diffraction methods. Laser diffraction is recognized by standards and guidance agencies including ISO and ASTM and is widely used to determine particle size distributions. In conducting the assessment, the sample is passed through a laser beam which results in laser light scattered at a range of angles. Detectors placed at fixed angles measure the intensity of light scattered at that position. A mathematical model (Mie or Fraunhoffer Theory) is then applied to generate a particle size distribution.
The particle size was analyzed using the laser diffraction (or small angle light scattering) technique by dispersing the dry sample powder with compressed air. Specifically, the particle size distribution was analyzed using the Sympatec HELOS RODOS system equipped with a Vibri dry powder feeder. The powder sample was dispersed with a dispersion pressure of 0.5 bar. In some instances, an Aspiros micro-dosing device was used, and the powder sample was dispersed with a dispersion pressure of 0.2 bar. A suitable lens was selected to cover the particle size range of each sample.

[6] = UPLC/MS testing of the saturated solution; format: physicochemical; settings: saturated solution from experiments #3 (NMP) and #11 (10% n-BuOH/NMP) of Table 6
[7] = small-scale crystallization studies; format: physicochemical; settings: 50 mg/mL, 10 mg scale, warmed to reflux
Description: A series of small-scale crystallization experiments was run to identify a potential recrystallization solvent system as well as to assess the impact of solvent on the shape of the free base primary particles isolated. An initial set of 14 screening studies were run on a 10 mg scale using sealed vials and an external heat source to warm the 50 mg/mL samples up to reflux temperature. Visual observation identified the samples that went into solution, and photomicroscopy was used to characterize the particles produced.

Compound: CC(=O)c1c(C)c2cnc(Nc3ccc(N4CCNCC4)cn3)nc2n(C2CCCC2)c1=O [compound 1, 6-acetyl-8-cyclopentyl-5-methyl-2-(5-piperazin-1-yl-pyridin-2-ylamino)-8H-pyrido[2,3-d]pyrimidin-7-one]
- Dissolution Temp. ([1]; 1:1:8 propylene glycol/n-BuOH/anisole (v/v)): 91.2 °C
- Dissolution Temp. ([1]; 2:1:7 propylene glycol/n-BuOH/anisole (v/v)): 84.1 °C
- Dissolution Temp. ([1]; 10% 1,4-butanediol/anisole (v/v)): 109.8 °C
- Dissolution Temp. ([1]; 10% n-BuOH/Anisole (v/v)): >110° ° C.
- Dissolution Temp. ([1]; 10% n-BuOH/NMP (v/v)): 103.7 °C
- Dissolution Temp. ([1]; 20% n-BuOH/Anisole (v/v)): 109.7 °C
- Dissolution Temp. ([1]; 25% 1,4-butanediol/anisole (v/v)): 104.8 °C
- Dissolution Temp. ([1]; 25% n-BuOH/NMP (v/v)): >110° ° C.
- Dissolution Temp. ([1]; 40% n-BuOH/Anisole (v/v)): 101.4 °C
- Dissolution Temp. ([1]; Anisole): >110° ° C.
- Dissolution Temp. ([1]; DMAc): >110° ° C.
- Dissolution Temp. ([1]; DMF): >110° ° C.
- Dissolution Temp. ([1]; DMSO): >110° ° C.
- Dissolution Temp. ([1]; NMP): 97.9 °C
- Dissolution Temp. ([1]; n-BuOH): >110° ° C.
- Dissolution Temp. ([1]; n-Butyl acetate): >110° ° C.
- MASS Punch profile (sticking propensity) [2]: positive response
- size of hard agglomerates [3]: approximately 500 microns
- bioavailability in animal studies [4]: low
- Particle size D [4, 3] ([5]; 0.2 Bar ASPIROS dispersion): 21.33 μm
- Particle size D [v, 0.1] ([5]; 0.2 Bar ASPIROS dispersion): 5.21 μm
- Particle size D [v, 0.5] ([5]; 0.2 Bar ASPIROS dispersion): 17.00 μm
- Particle size D [v, 0.9] ([5]; 0.2 Bar ASPIROS dispersion): 43.59 μm
- D90 ([5]; Table 11): approximately 45 μm
- chemical stability in solution (impurity peak by UPLC/MS) [6]: degradation occurred
- Results of recrystallization ([7]; Anisole): large particles (lathes or tomahawk shape)
- Results of recrystallization ([7]; Chlorobenzene): small irregular shaped particles
- Results of recrystallization ([7]; Cyclopentylmethyl ether): did not dissolve
- Results of recrystallization ([7]; DMF): small needle shaped particles
- Results of recrystallization ([7]; Mesitylene): small needle shaped particles
- Results of recrystallization ([7]; NMP): small irregular shaped particles
- Results of recrystallization ([7]; Propylene glycol): small irregular shaped particles
- Results of recrystallization ([7]; Pyridine): small lathe shaped particles
- Results of recrystallization ([7]; Sulfolane): small irregular shaped particles
- Results of recrystallization ([7]; Toluene): did not dissolve
- Results of recrystallization ([7]; Trifluorotoluene): did not dissolve
- Results of recrystallization ([7]; m-Xylene): small/medium tomahawk shaped particles
- Results of recrystallization ([7]; n-Butanol): did not dissolve
- Results of recrystallization ([7]; n-Butyl Acetate): did not dissolve
